In paper PMC11374953, “Heteroaryl derivatives of suvorexant as OX1R selective PET ligand candidates: Cu-mediated ^18F-fluorination of boroxines, in vitro and initial in vivo evaluation” (EJNMMI Research, 2024):
Values joined by “and” are separate entries in the source; they are usually repeats but may differ in a detail not shown here. Equal values may be shown once. “Also recorded” adds a separate entry of the source.

What was measured:
[1] = target: T1, human OX1R (Homo sapiens, UniProt O43613); experiment: Radioligand displacement binding, human OX1R (HEK293T membranes); conditions: for OX1R selectivity Ki(hOX2R)/Ki(hOX1R): Ki for OX2R divided by Ki for OX1R; for Ki: mean ± SEM, at least three experiments in triplicate, HEK293T membranes, radioligand [^3H]SB974042, read-out: Ki values (nM ± SEM) hOX1R
T1 construct: host or cells: HEK293T
T1 sequence (O43613 1-425): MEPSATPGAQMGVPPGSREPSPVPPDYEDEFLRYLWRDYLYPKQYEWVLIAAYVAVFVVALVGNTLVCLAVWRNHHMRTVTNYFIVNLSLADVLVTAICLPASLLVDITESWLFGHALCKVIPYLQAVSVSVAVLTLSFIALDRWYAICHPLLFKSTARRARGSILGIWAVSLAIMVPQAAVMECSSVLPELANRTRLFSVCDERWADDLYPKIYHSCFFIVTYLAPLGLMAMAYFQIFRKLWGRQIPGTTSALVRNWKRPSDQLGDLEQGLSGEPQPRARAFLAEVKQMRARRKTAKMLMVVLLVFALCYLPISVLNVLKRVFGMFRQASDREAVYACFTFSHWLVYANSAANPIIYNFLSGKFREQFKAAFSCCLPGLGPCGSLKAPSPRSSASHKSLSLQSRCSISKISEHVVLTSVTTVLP
Description: (§1) In comparison with the lead JH112, receptor binding affinities of the test compounds 1a–f have been determined by radioligand displacement studies, as described previously, applying membranes of HEK293T cells transiently expressing the human OX1R or OX2R (Table 1).
Binding affinities to the human orexin receptor subtypes OX1R and OX2R were determined as reported. Membranes were prepared from HEK293T cells transiently transfected with the cDNA for the receptor (OX1R: human HCRTR1 from cDNA Resource Center, Bloomsburg University, Bloomsberg, PA; OX2R: human HCRTR2 from Genscript, Piscataway, NJ). […] Competition binding experiments were conducted in binding buffer (50 mM Tris, 5 mM MgCl2, 0.1 mM EDTA, 5 µg/mL bacitracin and 5 µg/mL soybean trypsin inhibitor at pH 7.4) at final protein concentrations of 4 µg/well (OX1R) and 3 µg/well ([…]) or the OX2R radioligand [^3H]EMPA (specific activity: 84 Ci/mmol) both at a final concentration of 0.7 nM (both purchased from Novandi, Södertälje, Sweden) and varying concentrations of the competing test compounds. Radioactivity was separated by filtration on GF/B glass fiber mats and counted with a scintillation counter (Microbeta from PerkinElmer, Rodgau, Germany). […] The protein concentration was determined applying the method of Lowry. Competition curves were analyzed by nonlinear regression using the algorithms implemented in PRISM 10.2 (GraphPad Software, San Diego, CA) to get IC50 values, which were subsequently transformed into the Ki values employing the equation of Cheng and Prusoff.

[2] = target: T2, human OX2R (Homo sapiens, UniProt O43614); experiment: Radioligand displacement binding, human OX2R (HEK293T membranes); conditions: mean ± SEM, at least three experiments in triplicate; HEK293T homogenates, radioligand [^3H]EMPA; read-out: Ki values (nM ± SEM) hOX2R
T2 construct: host or cells: HEK293T
T2 sequence (O43614 1-444): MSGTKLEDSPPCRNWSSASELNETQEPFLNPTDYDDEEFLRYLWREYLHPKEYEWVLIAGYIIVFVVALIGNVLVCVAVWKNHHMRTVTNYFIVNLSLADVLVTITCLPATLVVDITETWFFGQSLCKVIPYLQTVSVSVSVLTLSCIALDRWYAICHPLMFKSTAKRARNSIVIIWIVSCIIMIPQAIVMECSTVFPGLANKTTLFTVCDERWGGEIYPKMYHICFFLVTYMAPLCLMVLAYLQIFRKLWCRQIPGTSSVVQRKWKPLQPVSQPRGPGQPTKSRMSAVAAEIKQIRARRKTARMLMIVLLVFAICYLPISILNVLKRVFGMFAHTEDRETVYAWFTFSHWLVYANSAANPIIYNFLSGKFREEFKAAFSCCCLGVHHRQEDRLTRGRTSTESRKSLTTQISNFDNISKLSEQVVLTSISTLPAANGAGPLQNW
Description: as §1
Binding affinities to the human orexin receptor subtypes OX1R and OX2R were determined as reported. Membranes were prepared from HEK293T cells transiently transfected with the cDNA for the receptor (OX1R: human HCRTR1 from cDNA Resource Center, Bloomsburg University, Bloomsberg, PA; OX2R: human HCRTR2 from Genscript, Piscataway, NJ). […] Competition binding experiments were conducted in binding buffer (50 mM Tris, 5 mM MgCl2, 0.1 mM EDTA, 5 µg/mL bacitracin and 5 µg/mL soybean trypsin inhibitor at pH 7.4) at final protein concentrations of 4 µg/well (OX1R) and 3 µg/well (OX2R) when incubating the OX1R specific radioligand [^3H]SB674042 (specific activity: 43 Ci/mmol) or the OX2R radioligand [^3H]EMPA (specific activity: 84 Ci/mmol) both at a final concentration of 0.7 nM (both purchased from Novandi, Södertälje, Sweden) and varying concentrations of the competing test compounds. Radioactivity was separated by filtration on GF/B glass fiber mats and counted with a scintillation counter (Microbeta from PerkinElmer, Rodgau, Germany). Non-specific binding was determined with 10 µM of SB674042 or EMPA. The protein concentration was determined applying the method of Lowry. Competition curves were analyzed by nonlinear regression using the algorithms implemented in PRISM 10.2 (GraphPad Software, San Diego, CA) to get IC50 values, which were subsequently transformed into the Ki values employing the equation of Cheng and Prusoff.

[3] = target: P-gp (Homo sapiens, UniProt P08183); experiment: Basolateral-to-apical transport in Caco-2 monolayers with and without the P-gp inhibitor zosuquidar; conditions: for effect of P-gp inhibitor zosuquidar (ZSQ) on basolateral-to-apical transport / passive permeability (transcellular passive diffusion): Caco-2 monolayers, 4 h; for effect of P-gp inhibitor zosuquidar (ZSQ) on basolateral-to-apical transport: 5 µM compound, 1 µM ZSQ, n = 8; for passive permeability (transcellular passive diffusion): 5 µM, compared with digoxin; for P-gp substrate assessment: Caco-2 monolayer model with zosuquidar
Sequence of P-gp (P08183 whole entry, the tested form may be a part): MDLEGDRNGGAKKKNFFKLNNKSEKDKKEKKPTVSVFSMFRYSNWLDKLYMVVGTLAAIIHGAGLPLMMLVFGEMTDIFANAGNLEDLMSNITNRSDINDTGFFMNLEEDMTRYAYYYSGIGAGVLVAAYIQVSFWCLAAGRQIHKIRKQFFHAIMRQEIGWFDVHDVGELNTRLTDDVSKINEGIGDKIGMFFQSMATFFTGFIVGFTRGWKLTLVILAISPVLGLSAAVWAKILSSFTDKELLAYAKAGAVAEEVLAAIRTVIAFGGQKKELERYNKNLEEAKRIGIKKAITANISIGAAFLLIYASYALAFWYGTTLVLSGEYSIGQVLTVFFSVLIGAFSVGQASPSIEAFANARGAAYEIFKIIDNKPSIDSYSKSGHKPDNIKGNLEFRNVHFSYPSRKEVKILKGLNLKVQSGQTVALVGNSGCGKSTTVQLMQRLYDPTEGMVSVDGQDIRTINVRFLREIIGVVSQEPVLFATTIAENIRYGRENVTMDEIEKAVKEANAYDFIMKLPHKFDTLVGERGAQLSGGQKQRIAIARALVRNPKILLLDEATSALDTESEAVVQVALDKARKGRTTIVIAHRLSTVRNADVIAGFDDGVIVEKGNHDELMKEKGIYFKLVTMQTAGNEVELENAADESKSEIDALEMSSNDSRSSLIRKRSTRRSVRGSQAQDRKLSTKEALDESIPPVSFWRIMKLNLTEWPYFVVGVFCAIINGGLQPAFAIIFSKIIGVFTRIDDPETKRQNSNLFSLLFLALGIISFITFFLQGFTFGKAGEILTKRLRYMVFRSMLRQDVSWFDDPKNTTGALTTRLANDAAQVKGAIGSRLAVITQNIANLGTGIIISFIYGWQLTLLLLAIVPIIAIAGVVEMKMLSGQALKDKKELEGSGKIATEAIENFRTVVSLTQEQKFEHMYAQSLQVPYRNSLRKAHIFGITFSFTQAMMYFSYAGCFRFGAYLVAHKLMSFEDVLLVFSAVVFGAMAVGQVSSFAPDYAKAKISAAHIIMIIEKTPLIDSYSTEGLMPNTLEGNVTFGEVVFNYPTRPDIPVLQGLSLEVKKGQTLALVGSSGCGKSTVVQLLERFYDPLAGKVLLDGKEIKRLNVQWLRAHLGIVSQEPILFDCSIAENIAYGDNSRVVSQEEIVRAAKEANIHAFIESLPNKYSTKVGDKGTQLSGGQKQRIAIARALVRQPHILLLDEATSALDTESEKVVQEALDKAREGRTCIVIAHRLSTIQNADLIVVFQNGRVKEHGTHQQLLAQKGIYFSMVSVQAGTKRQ
Description: Amounts being present after 4 h in the apical compartment are shown in % of the amount administered to the basal side.
In order to characterize compounds as substrates of P-gp, monolayers of Caco-2 cells were used in line with previous studies [53]. In brief, transport from the basolateral to apical compartment was determined after 4 h in the absence or presence of the P-gp inhibitor zosuquidar (Biomol GmbH, Hamburg, Germany). […] Zosuquidar was administered in a concentration of 1 µM to the basal and apical compartments. Results are expressed in % of the amount administered to the basolateral compartment at the beginning of the experiment. The P-gp substrate digoxin (obtained in tritium-labeled form from ARC, St. Louis, USA and in unlabeled form from Merck KGaA, Darmstadt, Germany) was used as positive control. Monolayer integrity was checked routinely using tritium-labeled inulin (obtained from ARC, St. Louis, USA). […] LC–MS analyses were performed using an ultra-high-performance liquid chromatography (UPLC) (Ultimate 3000, Thermo Fisher Scientific) coupled to a high-resolution mass spectrometer (QExactive Orbitrap Focus, Thermo Fisher Scientific). The analytical column was an Acquity UPLC BEH C18, 1.7 µm, 2.1 × 100 mm column (Waters GmbH) and 80% methanol with 0.1% formic acid was used as mobile phase during an isocratic elution for 5 min at a flow rate of 0.35 mL/min. For sample preparation, 200 µL cell culture supernatant were mixed with 600 µL methanol including 50 ng/mL clopidogrel-d3 as an internal standard. Samples were centrifuged, the solvent of 600 µL supernatant was evaporated to dryness and 100 µL mobile phase was used for reconstitution. The injection volume was 5 µL. All experiments were performed with eight biological replicates. Unpaired t-test was used for analyzing differences with p-values < 0.05 considered significant.

| Compound | OX1R selectivity Ki(hOX2R)/Ki(hOX1R) [1] | Ki [1] [nM] | Ki [2] | effect of P-gp inhibitor zosuquidar (ZSQ) on basolateral-to-apical transport [3] | passive permeability (transcellular passive diffusion) [3] | P-gp substrate assessment [3] | decrease of OX1R affinity compared to JH112 (factor) ([1]; fluorine for chlorine replacement) |
| --- | --- | --- | --- | --- | --- | --- | --- |
| Cc1ccc(-n2nccn2)c(C(=O)N2CCCN(c3nc4cc(F)ccc4o3)CC2)c1 [1a] | 1.0 | 2.5 ± 0.62 | 2.5 ± 0.36 nM |  |  |  |  |
| Cc1ccc(-n2nccn2)c(C(=O)N2CCCN(c3nc4cc(F)ccc4s3)CC2)c1 [1b] | 1.3 | 1.9 ± 0.42 | 2.4 ± 0.49 nM | did not significantly reduce | greater than that of digoxin |  |  |
| Cc1ccc(-n2nccn2)c(C(=O)N2CCCN(c3nc4ccc(F)cc4s3)CC2)c1 [1c] | 1.2 | 0.99 ± 0.25 | 1.2 ± 0.2 nM | only moderately inhibited; also recorded: very modest, yet significant, effect | greater than that of digoxin | not efficient P-gp substrates |  |
| Cc1ccc(-n2nccn2)c(C(=O)N2CCCN(c3cnc4cc(F)ccc4n3)CC2)c1 [1d] | 0.7 | 1.2 ± 0.4 | 0.8 nM and 0.83 nM | did not significantly reduce | greater than that of digoxin |  |  |
| CC[C@H](C)[C@H]1CN(c2nc3cc(F)ccc3o2)CCCN1C(=O)c1cc(C)ccc1-n1nccn1 [1e] | 77 | 1.2 ± 0.28 | 92 ± 14 nM |  |  |  | 1.6 |
| CC[C@H](C)[C@H]1CN(c2nc3ccc(F)cc3s2)CCCN1C(=O)c1cc(C)ccc1-n1nccn1 [1f] | 77 | 0.69 ± 0.26 | 53 ± 7.8 nM | no effect; also recorded: did not significantly reduce | similarly high as with digoxin | not efficient P-gp substrates |  |
